Results taken from patent US20230398130A1, “METHODS AND COMPOSITIONS FOR DIFFERENTIATING STEM CELLS” (Massachusetts Institute of Technology, priority 2020, published 2023).

Legend:
ISC-enriched organoids [1] = test: Primary screen, 384-well 2.5-D organoid differentiation (ENR+CD, 6 days): carbachol-induced lysozyme secretion (LYZ.S); format: cell-based, murine; conditions: primary screen, FC vs plate median
Source text: (§1) High-throughput screening.

ISC-enriched organoids [2] = test: Primary screen, 384-well 2.5-D organoid differentiation (ENR+CD, 6 days, Target Selective Inhibitor Library, vs whole-plate median): ATP (CellTiter-Glo 3D, CTG); conditions: for Dose.FC.CTG: primary screen, FC vs plate median; for Z.CTG: standard z score of FC
ISC-enriched organoids [3] = test: Primary screen, 384-well 2.5-D organoid differentiation (ENR+CD, 6 days): basal lysozyme secretion (LYZ.NS); format: cell-based, murine; conditions: for Dose.FC.LYZ.NS: primary screen, FC vs plate median; for Z.LYZ.NS: standard z score of FC
Source text: as §1

Row | Structure (SMILES) | Dose.FC.LYZ.S (ISC-enriched organoids [1]; Dose 0.08 uM) | Dose.FC.LYZ.S (ISC-enriched organoids [1]; Dose 0.40 uM) | Dose.FC.LYZ.S (ISC-enriched organoids [1]; Dose 2.00 uM) | Dose.FC.LYZ.S (ISC-enriched organoids [1]; Dose 10.00 uM) | Dose.FC.CTG (ISC-enriched organoids [2]; Dose 0.08 uM) | Z.CTG (ISC-enriched organoids [2]; Dose 0.08 uM) | Dose.FC.CTG (ISC-enriched organoids [2]; Dose 0.40 uM) | Z.CTG (ISC-enriched organoids [2]; Dose 0.40 uM) | Dose.FC.CTG (ISC-enriched organoids [2]; Dose 2.00 uM) | Z.CTG (ISC-enriched organoids [2]; Dose 2.00 uM) | Dose.FC.CTG (ISC-enriched organoids [2]; Dose 10.00 uM) | Z.CTG (ISC-enriched organoids [2]; Dose 10.00 uM) | Dose.FC.LYZ.NS (ISC-enriched organoids [3]; Dose 0.08 uM) | Z.LYZ.NS (ISC-enriched organoids [3]; Dose 0.08 uM) | Dose.FC.LYZ.NS (ISC-enriched organoids [3]; Dose 0.40 uM) | Z.LYZ.NS (ISC-enriched organoids [3]; Dose 0.40 uM) | Dose.FC.LYZ.NS (ISC-enriched organoids [3]; Dose 2.00 uM) | Z.LYZ.NS (ISC-enriched organoids [3]; Dose 2.00 uM) | Dose.FC.LYZ.NS (ISC-enriched organoids [3]; Dose 10.00 uM) | Z.LYZ.NS (ISC-enriched organoids [3]; Dose 10.00 uM)
1 | O=C(Nc1cccnc1)N1CCC(Cc2cccc(Oc3ccc(C(F)(F)F)cn3)c2)CC1 [PF-3845] | 0.027 log 2 fold change | −0.061 log 2 fold change | −0.032 log 2 fold change | −0.195 log 2 fold change | −0.047 log 2 fold change | −0.112 | 0.052 log 2 fold change | 0.125 | −0.103 log 2 fold change | −0.246 | −0.286 log 2 fold change | −0.684 | 0.061 log 2 fold change | 0.532 | −0.077 log 2 fold change | −0.668 | −0.015 log 2 fold change | −0.131 | −0.131 log 2 fold change | −1.137
2 | CN(c1ncccc1CNc1nc(Nc2ccc3c(c2)CC(=O)N3)ncc1C(F)(F)F)S(C)(=O)=O [PF-562271] | −0.088 log 2 fold change | −0.214 log 2 fold change | −0.332 log 2 fold change | −0.414 log 2 fold change | −0.114 log 2 fold change | −0.273 | −0.217 log 2 fold change | −0.518 | −0.549 log 2 fold change | −1.311 | −0.949 log 2 fold change | −2.266 | −0.068 log 2 fold change | −0.589 | −0.152 log 2 fold change | −1.325 | −0.234 log 2 fold change | −2.034 | −0.251 log 2 fold change | −2.184
3 | CS(=O)(=O)c1cccc(CNc2nc(Nc3ccc4c(c3)CCC(=O)N4)ncc2C(F)(F)F)c1 [PF-573228] | 0.114 log 2 fold change | 0.002 log 2 fold change | −0.174 log 2 fold change | −0.305 log 2 fold change | 0.077 log 2 fold change | 0.183 | −0.054 log 2 fold change | −0.129 | −0.434 log 2 fold change | −1.037 | −0.497 log 2 fold change | −1.188 | 0.010 log 2 fold change | 0.089 | −0.046 log 2 fold change | −0.401 | −0.058 log 2 fold change | −0.502 | −0.250 log 2 fold change | −2.180
4 | OCCn1cc(-c2cnc3nnn(Cc4ccc5ncccc5c4)c3n2)cn1 [PF-04217903] | 0.110 log 2 fold change | 0.265 log 2 fold change | 0.049 log 2 fold change | 0.127 log 2 fold change | 0.136 log 2 fold change | 0.326 | 0.258 log 2 fold change | 0.616 | −0.051 log 2 fold change | −0.122 | 0.116 log 2 fold change | 0.276 | 0.085 log 2 fold change | 0.742 | 0.161 log 2 fold change | 1.404 | 0.122 log 2 fold change | 1.060 | 0.071 log 2 fold change | 0.617
5 | Cc1cnc(-c2cc(N3CCN(C(=O)CCS(C)(=O)=O)CC3)ncc2Cl)c(C)c1 [PF-5274857] | 0.187 log 2 fold change | −0.034 log 2 fold change | 0.042 log 2 fold change | 0.076 log 2 fold change | −0.101 log 2 fold change | −0.242 | −0.040 log 2 fold change | −0.096 | 0.055 log 2 fold change | 0.131 | −0.076 log 2 fold change | −0.183 | 0.078 log 2 fold change | 0.683 | −0.029 log 2 fold change | −0.256 | 0.011 log 2 fold change | 0.094 | 0.074 log 2 fold change | 0.642
6 | COc1ccccc1S(=O)(=O)Nc1ccc2c(c1)CN(C)C(=O)N2 [PFI-1 (PF-6405761)] | 0.061 log 2 fold change | 0.104 log 2 fold change | −0.117 log 2 fold change | −0.194 log 2 fold change | 0.142 log 2 fold change | 0.340 | 0.390 log 2 fold change | 0.931 | 0.322 log 2 fold change | 0.770 | −0.389 log 2 fold change | −0.929 | 0.062 log 2 fold change | 0.538 | 0.079 log 2 fold change | 0.691 | −0.098 log 2 fold change | −0.852 | −0.066 log 2 fold change | −0.573
7 | COc1cc(OC)c(NC(=O)Nc2cc(C)on2)cc1Cl [PNU-120596] | 0.058 log 2 fold change | 0.081 log 2 fold change | 0.065 log 2 fold change | −0.049 log 2 fold change | −0.079 log 2 fold change | −0.188 | 0.085 log 2 fold change | 0.204 | 0.114 log 2 fold change | 0.271 | 0.138 log 2 fold change | 0.330 | 0.108 log 2 fold change | 0.944 | −0.011 log 2 fold change | −0.098 | 0.068 log 2 fold change | 0.594 | −0.060 log 2 fold change | −0.525
8 | CC(C)(C)n1nc(-c2ccc(Cl)cc2)c2c(N)ncnc21 [PP2] | 0.058 log 2 fold change | 0.145 log 2 fold change | 0.113 log 2 fold change | 0.027 log 2 fold change | −0.693 log 2 fold change | −1.655 | 0.130 log 2 fold change | 0.312 | −0.382 log 2 fold change | −0.913 | −0.246 log 2 fold change | −0.587 | 0.033 log 2 fold change | 0.285 | 0.012 log 2 fold change | 0.104 | 0.270 log 2 fold change | 2.354 | −0.027 log 2 fold change | −0.235
